Source: ChEMBL document CHEMBL1201862, “PubChem BioAssay data set” (2004)
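Method: 48-hour compound exposure of cells in 96-well plates, five concentrations, linear interpolation of endpoints. GI50 = concentration required for 50% inhibition of growth.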 Active and inactive are the calls of the source. Rule as the data show it: active = GI50 up to about 1.1 µM and inactive = higher.

Tests used:
Experiment in all cases: NCI-60 cell line screen, 48 h
LOX IMVI = tested on: LOX IMVI
K562 = tested on: K562
786-0 = tested on: 786-0
HOP-92 = tested on: HOP-92
OVCAR-8 = tested on: OVCAR-8
IGROV-1 = tested on: IGROV-1
MCF7 = tested on: MCF7
M14 = tested on: M14
HCC 2998 = tested on: HCC 2998
ACHN = tested on: ACHN
SW-620 = tested on: SW-620
NCI-H23 = tested on: NCI-H23
UACC-62 = tested on: UACC-62
SK-MEL-5 = tested on: SK-MEL-5
UO-31 = tested on: UO-31
T47D = tested on: T47D
SK-MEL-2 = tested on: SK-MEL-2
SN12C = tested on: SN12C
DU-145 = tested on: DU-145
HCT-116 = tested on: HCT-116
NCI/ADR-RES = tested on: NCI/ADR-RES
OVCAR-5 = tested on: OVCAR-5
PC-3 = tested on: PC-3
OVCAR-4 = tested on: OVCAR-4
OVCAR-3 = tested on: OVCAR-3
SF-539 = tested on: SF-539
EKVX = tested on: EKVX
UACC-257 = tested on: UACC-257
CCRF-CEM = tested on: CCRF-CEM
SK-MEL-28 = tested on: SK-MEL-28
MDA-MB-231 = tested on: MDA-MB-231
HOP-62 = tested on: HOP-62
NCI-H522 = tested on: NCI-H522
SK-OV-3 = tested on: SK-OV-3
Malme-3M = tested on: Malme-3M
U-251 = tested on: U-251
MOLT-4 = tested on: MOLT-4
HCT-15 = tested on: HCT-15
MDA-MB-435 = tested on: MDA-MB-435
KM12 = tested on: KM12
NCI-H460 = tested on: NCI-H460
RXF 393 = tested on: RXF 393
HL-60 = tested on: HL-60
SF-295 = tested on: SF-295
SNB-19 = tested on: SNB-19
SF-268 = tested on: SF-268
Hs-578T = tested on: Hs-578T
BT-549 = tested on: BT-549
COLO 205 = tested on: COLO 205
NCI-H226 = tested on: NCI-H226
A549 = tested on: A549
HT-29 = tested on: HT-29
MDA-N = tested on: MDA-N
TK-10 = tested on: TK-10
SR = tested on: SR
CAKI-1 = tested on: CAKI-1
A498 = tested on: A498
SNB-75 = tested on: SNB-75
RPMI-8226 = tested on: RPMI-8226

## COc1ccc(/C=N/NC(=O)c2ccc(O)c(CN(C)C)c2)cc1
LOX IMVI
  GI50: > 100 µM (inactive)
K562
  GI50: > 100 µM (inactive)
786-0
  GI50: > 100 µM (inactive)
HOP-92
  GI50: 57 µM (inactive)
OVCAR-8
  GI50: > 100 µM (inactive)
IGROV-1
  GI50: > 100 µM (inactive)
MCF7
  GI50: > 100 µM (inactive)
M14
  GI50: > 100 µM (inactive)
HCC 2998
  GI50: > 100 µM (inactive)
ACHN
  GI50: > 100 µM (inactive)
SW-620
  GI50: > 100 µM (inactive)
NCI-H23
  GI50: > 100 µM (inactive)
UACC-62
  GI50: > 100 µM (inactive)
SK-MEL-5
  GI50: > 100 µM (inactive)
UO-31
  GI50: > 100 µM (inactive)
T47D
  GI50: > 100 µM (inactive)
SK-MEL-2
  GI50: > 100 µM (inactive)
SN12C
  GI50: > 100 µM (inactive)
DU-145
  GI50: > 100 µM (inactive)
HCT-116
  GI50: > 100 µM (inactive)
NCI/ADR-RES
  GI50: > 100 µM (inactive)
OVCAR-5
  GI50: > 100 µM (inactive)
PC-3
  GI50: > 100 µM (inactive)
OVCAR-4
  GI50: > 100 µM (inactive)
OVCAR-3
  GI50: > 100 µM (inactive)
SF-539
  GI50: > 100 µM (inactive)
EKVX
  GI50: > 100 µM (inactive)
UACC-257
  GI50: > 100 µM (inactive)
CCRF-CEM
  GI50: > 100 µM (inactive)
SK-MEL-28
  GI50: > 100 µM (inactive)
MDA-MB-231
  GI50: > 100 µM (inactive)
HOP-62
  GI50: > 100 µM (inactive)
NCI-H522
  GI50: 10.5 µM (inactive)
SK-OV-3
  GI50: > 100 µM (inactive)
Malme-3M
  GI50: > 100 µM (inactive)
U-251
  GI50: > 100 µM (inactive)
MOLT-4
  GI50: > 100 µM (inactive)
HCT-15
  GI50: > 100 µM
MDA-MB-435
  GI50: 47.3 µM (inactive)
KM12
  GI50: > 100 µM (inactive)
NCI-H460
  GI50: > 100 µM (inactive)
RXF 393
  GI50: > 100 µM (inactive)
HL-60
  GI50: > 100 µM (inactive)
SF-295
  GI50: > 100 µM (inactive)
SNB-19
  GI50: > 100 µM (inactive)
SF-268
  GI50: > 100 µM (inactive)
Hs-578T
  GI50: > 100 µM (inactive)
BT-549
  GI50: > 100 µM (inactive)
COLO 205
  GI50: > 100 µM (inactive)
NCI-H226
  GI50: > 100 µM (inactive)
A549
  GI50: > 100 µM (inactive)
HT-29
  GI50: > 100 µM (inactive)
MDA-N
  GI50: > 100 µM (inactive)
TK-10
  GI50: > 100 µM (inactive)
SR
  GI50: > 100 µM (inactive)
CAKI-1
  GI50: > 100 µM (inactive)
A498
  GI50: 18.2 µM (inactive)

## COC1=CC2(C=CC1=O)CCNC1=C2C(=O)c2nc[nH]c2C1=O (stereo not given)
LOX IMVI
  GI50: > 100 µM (inactive)
K562
  GI50: > 100 µM (inactive)
786-0
  GI50: > 100 µM (inactive)
HOP-92
  GI50: > 100 µM (inactive)
OVCAR-8
  GI50: > 100 µM (inactive)
IGROV-1
  GI50: > 100 µM (inactive)
MCF7
  GI50: > 100 µM (inactive)
M14
  GI50: > 100 µM (inactive)
HCC 2998
  GI50: > 100 µM (inactive)
ACHN
  GI50: > 100 µM (inactive)
SW-620
  GI50: > 100 µM (inactive)
NCI-H23
  GI50: > 100 µM (inactive)
UACC-62
  GI50: > 100 µM (inactive)
SK-MEL-5
  GI50: > 100 µM (inactive)
UO-31
  GI50: > 100 µM (inactive)
T47D
  GI50: > 100 µM (inactive)
SK-MEL-2
  GI50: > 100 µM (inactive)
SN12C
  GI50: > 100 µM (inactive)
DU-145
  GI50: > 100 µM (inactive)
HCT-116
  GI50: > 100 µM (inactive)
NCI/ADR-RES
  GI50: > 100 µM (inactive)
OVCAR-5
  GI50: > 100 µM (inactive)
PC-3
  GI50: > 100 µM (inactive)
OVCAR-4
  GI50: > 100 µM (inactive)
OVCAR-3
  GI50: 41.8 µM (inactive)
SF-539
  GI50: > 100 µM (inactive)
EKVX
  GI50: > 100 µM (inactive)
UACC-257
  GI50: > 100 µM (inactive)
CCRF-CEM
  GI50: > 100 µM (inactive)
SK-MEL-28
  GI50: > 100 µM (inactive)
MDA-MB-231
  GI50: > 100 µM (inactive)
HOP-62
  GI50: > 100 µM (inactive)
NCI-H522
  GI50: 32.3 µM (inactive)
SK-OV-3
  GI50: > 100 µM (inactive)
SNB-75
  GI50: > 100 µM (inactive)
Malme-3M
  GI50: > 100 µM (inactive)
U-251
  GI50: > 100 µM (inactive)
MOLT-4
  GI50: > 100 µM (inactive)
HCT-15
  GI50: > 100 µM
MDA-MB-435
  GI50: > 100 µM (inactive)
KM12
  GI50: > 100 µM (inactive)
NCI-H460
  GI50: > 100 µM (inactive)
RXF 393
  GI50: > 100 µM (inactive)
HL-60
  GI50: > 100 µM (inactive)
RPMI-8226
  GI50: > 100 µM (inactive)
SF-295
  GI50: > 100 µM (inactive)
SNB-19
  GI50: > 100 µM (inactive)
SF-268
  GI50: > 100 µM (inactive)
Hs-578T
  GI50: > 100 µM (inactive)
BT-549
  GI50: > 100 µM (inactive)
COLO 205
  GI50: > 100 µM (inactive)
A549
  GI50: > 100 µM (inactive)
HT-29
  GI50: > 100 µM (inactive)
MDA-N
  GI50: > 100 µM (inactive)
TK-10
  GI50: > 100 µM (inactive)
SR
  GI50: > 100 µM (inactive)
CAKI-1
  GI50: > 100 µM (inactive)
A498
  GI50: > 100 µM (inactive)
